Ends that are not written are not given here.
Target: SCRIB PDZ2 H928A (Homo sapiens, UniProt Q14160, H928A)
Assay: biochemical
Type: binding

SCRIB PDZ2 H928A, sequence (Q14160 860-950 H928A limits assumed): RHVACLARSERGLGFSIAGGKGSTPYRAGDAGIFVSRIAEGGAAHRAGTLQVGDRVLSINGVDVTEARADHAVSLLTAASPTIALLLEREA

Sequence: KMARTIESEV [Vietnam (ESEV)]
- Kd: 3.6 ± 0.7 µM

Reference: PMC8954747 (Viruses, 2022)
